Measurements from article PMC11904221 (EMBO Molecular Medicine, 2025).
Where a SMILES comes first, the peptide text is derived from it.

Columns and labels:
[1] = Pharmacokinetic profile in mice, LC/MS; assay type: in vivo, mouse; conditions: mouse, iv, 100 mg/kg
Description: Pharmacokinetic profile of APLN-DM in mice
The aim of the current study was to evaluate pharmacokinetic properties of APLN-DM peptide administrated intravenously (IV) or intraperitoneously (IP) in Balb/C mice. […]
for the IP group). Development of quantification method was performed using liquid chromatography coupled to mass spectrometry (LC/MS).
Results: Samples obtained in vivo were analyzed according to quantification-developed method and the peptide was detectable until 15 minutes after administration. Analysis allowed determining that APLN-DM […]
All animals were divided to three groups of 27 animals, one of 12 animals and one of 3 animals (vehicle) and will receive the corresponding test item according to Table 1. Each animal was weighed and administered at the appropriate volume.
Concentration ROA Blood Individual animal numbers
Group No. Treatment Dose Collect
Table 11 - Group allocation
Development of analytic method
Standard range from 0.5 to 100 µM was prepared and analysed for each fragmented ion as previously […]
Standard curves obtained for each ion are represented in Figure 6.
Figure 8: Standard curves obtained by quantification of each fragmented ion The best linearity was obtained by quantifying the fragmented ion 785 (z=5).
Quantification of APLN-DM in samples
Summary of analytical method development:
Quantification method was performed according to previous work. In summary, samples were analysed with a LC-MS triple quadripole system (ESI QqQ). The chromatographic system was a UPLC activity (Waters) coupled to a mass spectrometer TSQ Quantum Ultra (Thermo) equipped with triple quadripole analyser and electrospray ionisation (ESI) system. The selected column was Kinetex F5 […] 50x2.1 mm (Phenomenex). The analysis was made by quantifying fragmented ion z=5 (m/z=785) in samples compared […]
quantitation was previously determined to be 0.5 µM. Samples were analysed after protein precipitation as […]
In vivo phase samples analysis
As the stability of peptide is low, even in frozen plasma, it was decided to re-run the in vivo phase for the highest dose and to use freshly prepared samples.
26 samples were used for analysis.
Only samples taken 5 and 10 minutes after peptide administration presented detectable concentrations (see
Table 9). While 15 min results were on the level of accuracy (linearity threshold values). At a later time […]
estimated based on the 5 and 10 min measurements.
Sample ID Area Calculated amount

[2] = mouse, in vivo, ip
Description: A single intraperitoneal injection on day 1 was followed by a 14-day observation period. Parameters monitored included mortality, morbidity, clinical signs, and body weight. At the study’s end, gross pathology and organ necropsy were conducted. […] Evaluations encompassed clinical observations, body weight, food consumption, hematology, blood chemistry, gross pathology, selected organ necropsy, and weight, and histopathology examinations. Comprehensive study details are in Appendix pharmacological studies-1 and -2. […]
was assessed in the present study.
Methods: 4 groups (5 males and 5 females per group) were assigned for this study. In each gender, reference item control groups (1F+1M) received the reference item (Saline Solution, NaCl 0,9%) and 3 treated groups […]
4F+4M) mg/kg. All animals were IP dosed and followed daily for 2 weeks (5 days a week). During the study, mortality and general clinical observation, body weight, food consumption, hematology, blood chemistry, gross pathology, selected organ necropsy and weight and histopathology examination of control and high dose groups […]
dosing of five female and five male mice (Table 1 and Table 2). The choice of the number and the gender of the animals were based on OECD guidelines.
Study variables and end points […]
Observations for signs of morbidity and mortality were performed daily. […] The time of death was recorded as precisely as possible. […]

Structure (SMILES): CSCC[C@H](NC(=O)[C@@H]1CCCN1C(=O)CNC(=O)[C@H](CCCCN)NC(=O)[C@H](Cc1c[nH]cn1)NC(=O)[C@H](CO)NC(=O)[C@H](CC(C)C)NC(=O)[C@H](CCCNC(=N)N)NC(=O)[C@@H]1CCCN1C(=O)[C@H](CCCNC(=N)N)NC(=O)[C@H](CCC(N)=O)NC(=O)[C@H](CO)NC(=O)[C@H](CO)NC(=O)[C@H](Cc1ccccc1)NC(=O)[C@H](CCCCN)NC(=O)[C@H](CO)NC(=O)[C@H](CO)NC(=O)CNC(=O)CNC(=O)[C@H](CCC(N)=O)NC(=O)[C@H](Cc1c[nH]c2ccccc12)NC(=O)[C@@H]1CCCN1C(=O)CNC(=O)[C@@H]1CCCN1C(=O)CNC(=O)[C@H](CC(N)=O)NC(=O)[C@H](CCCNC(=N)N)NC(=O)[C@H](CO)NC(=O)CNC(=O)[C@H](CCCNC(=N)N)NC(=O)[C@@H]1CCCN1C(=O)[C@H](CCC(N)=O)NC(=O)[C@@H](NC(=O)[C@@H](N)CC(C)C)C(C)C)C(=O)N1CCC[C@H]1C(=O)N[C@@H](Cc1ccccc1)C(=O)O [APLN-DM] (H-LVQPRGSRNGPGPWQGGSSKFSSQRPRLSHKGPMPF-OH)
- level at time molar at 5 min ([1]; Balb/C, plasma, group 2F, 100 mg/kg IV, 5 min, samples 1-3, no unit printed (standards in µM), read-out: Calculated amount in plasma sample): 0.793 µM
- level at time molar at 10 min ([1]; Balb/C, plasma, group 2F, 100 mg/kg IV, 10 min, samples 1-3, read-out: Calculated amount in plasma sample): 658 nM
- half-life ([1]; female, Balb/C mice plasma, LC/MS, estimated from the 5 and 10 min samples, read-out: half-life in vivo in mice): ~20 min
- MTD repeated administrations / highest tested dose found safe [2]: 300 mg/kg/day
- % Protein bound, 1st (in vitro): 56.8%
- % Protein bound, 2nd (in vitro): 52.2%
- % Recovery, 1st (in vitro): 123%
- % Recovery, 2nd (in vitro): 125%
- % Recovery, Mean (in vitro): 124%
- fraction unbound at 4 h, 1e-05 M (in vitro; human, plasma): 0.46
